In ChEMBL document CHEMBL2034899, “5-Arylbenzothiadiazine Type Compounds as Positive Allosteric Modulators of AMPA/Kainate Receptors” (ACS Med Chem Lett, 2012):
The source made the active and inactive calls. The rule behind the calls is not given here.

Tests used:
Cerebral cortex neuron [1] = assay: Positive allosteric modulation at AMPA receptor in primary cortical neurons assessed as potentiation of kainate-induced current at 100 uM by patch clamp analysis
[2] = Positive allosteric modulation at AMPA receptor in primary cortical neurons assessed as potentiation of kainate-induced current by patch clamp analysis; assay type: cell-based; details: Cerebral cortex neuron
[3] = Drug uptake in mouse nucleus accumbens at 20 mg/kg, ip measured after 2 hrs; assay type: ADME, organism-based; set-up: dose 20 mg/kg, route intraperitoneal; details: in vivo
[4] = Drug uptake in mouse nucleus accumbens assessed as 7-chloro-5-(3-furyl)-3- methyl-4H-1,2,4-benzothiadiazine 1,1-dioxide level at 20 mg/kg, ip measured after 2 hrs; assay type: ADME, organism-based; set-up: dose 20 mg/kg, route intraperitoneal; details: in vivo
[5] = Drug uptake in mouse nucleus accumbens assessed as 7-chloro-5-(3-furyl)-3- methyl-4H-1,2,4-benzothiadiazine 1,1-dioxide level at 20 mg/kg, ip measured after 140 mins; assay type: ADME, organism-based; set-up: dose 20 mg/kg, route intraperitoneal; details: in vivo
[6] = Drug uptake in mouse nucleus accumbens assessed as 7-chloro-5-(3-furyl)-3- methyl-4H-1,2,4-benzothiadiazine 1,1-dioxide level at 20 mg/kg, ip measured after 1 hr; assay type: ADME, organism-based; set-up: dose 20 mg/kg, route intraperitoneal; details: in vivo, read-out: Drug uptake
[7] = Drug uptake in mouse nucleus accumbens at 20 mg/kg, ip measured after 40 mins; assay type: ADME, organism-based; set-up: dose 20 mg/kg, route intraperitoneal; details: read-out: Drug uptake
Cerebral cortex neuron [8] = assay: Positive allosteric modulation at AMPA receptor in primary cortical neurons assessed as potentiation of kainate-induced current at 10 uM by patch clamp analysis; assay type: cell-based

SMILES | Activity (Cerebral cortex neuron [1]) | Activity (Cerebral cortex neuron [8]) [%] | also measured
CCC1Nc2c(-c3ccco3)cc(Cl)cc2S(=O)(=O)N1 (stereo not given) | inactive | < 10 | 
CC1Nc2c(-c3cccs3)cc(Cl)cc2S(=O)(=O)N1 (stereo not given) | inactive | < 10 | 
CC1CN2c3c1cc(Cl)cc3S(=O)(=O)NC2C (racemic) | inactive | 53 | 
CCC1Nc2c(-c3ccc(C(=O)O)cc3)cc(Cl)cc2S(=O)(=O)N1 (stereo not given) | inactive | < 10 | 
CC1Nc2c(-c3ccco3)cc(Cl)cc2S(=O)(=O)N1 (stereo not given) | inactive | 80 | 
O=S1(=O)NCNc2c(-c3ccco3)cc(Cl)cc21 | inactive | 20 | 
O=C(O)c1ccc(-c2cc(Cl)cc3c2NCNS3(=O)=O)cc1 | inactive | < 10 | 

Second part, led by results:

Activity (Cerebral cortex neuron [1]) | Activity (Cerebral cortex neuron [8]) [%] | SMILES | also measured
inactive | 358 | CC1Nc2c(-c3ccoc3)cc(Cl)cc2S(=O)(=O)N1 (stereo not given) | EC50 [2]: 1300 nM; Drug uptake [3]: Not Active; Drug uptake [4]: Active; Drug uptake [5]: Not Active; concentration [6]: 8 µM; concentration at 40 min [7]: 37 µM
inactive | < 10 | Nc1cccc(-c2cc(Cl)cc3c2NCNS3(=O)=O)c1 | 
inactive | < 10 | CC1Nc2c(-c3ccc(C(=O)O)cc3)cc(Cl)cc2S(=O)(=O)N1 (stereo not given) | 
inactive | 214 | CC1Nc2c(-c3ccsc3)cc(Cl)cc2S(=O)(=O)N1 (stereo not given) | 
inactive | < 10 | CC1Nc2c(-c3cccc(N)c3)cc(Cl)cc2S(=O)(=O)N1 (stereo not given) | 
